# Assay results as given in patent publication US12318381B2, “Treatment for non-alcoholic fatty liver disease” (1GLOBE BIOMEDICAL CO., LTD., priority 2018, dated 2025).
# Tested on: human HepG2 liver cells
# Test: Intracellular fat content in palmitoleic acid-treated HepG2 cells (AdipoRed/Hoechst 33258 double staining, fluorometry)
# Assay type: cell-based
# Settings: for palmitoleic acid-induced increase of intracellular triglyceride content: HepG2, 0.8 mM palmitoleic acid in EMEM; for inhibitory effect on fat accumulation as compared to Compound 13-3: HepG2, 0.8 mM palmitoleic acid
# Description: The effects on triglyceride accumulation from Compound 13-3-1, Compound 13-3-2, Compound 13-3-3, Compound 13-3-5, Compound 13-3-6, Compound 13-3-7, Compound 18-2, Compound 13-3-10 and Compound 13-3-11, as exemplary compounds of the invention, were tested. Human HepG2 liver cells were incubated with 0.8 mM palmitoleic acid in EMEM medium for 24 hours in the presence of 0.1 μM compounds of the invention or control vehicle, DMSO. Subsequently, the cells were washed with PBS and the intracellular fat content was measured by AdipoRed/Hoechst 33258 double staining, which was assessed by flourometry.
# And the effects of Compound 001, Compound 004, Compound 006, Compound 013, Compound 132, Compound 133 and Compound 134, as further exemplary compounds of the invention, were also tested. Human HepG2 liver cells were incubated with 0.8 mM palmitoleic acid in EMEM medium for 48 hours in the presence of 0.1 μM compounds of the invention or control vehicle, DMSO. Subsequently, the cells were washed with PBS and the intracellular fat content was measured by AdipoRed/Hoechst 33258 double staining, which was assessed by flourometry.
# [1] = 24 hours, 0.1 μM compound vs DMSO (FIG. 1B)
# [2] = 48 hours, 0.1 μM compound vs DMSO (FIG. 1C)
SMILES,palmitoleic acid-induced increase of intracellular triglyceride content [1],"inhibitory effect on fat accumulation as compared to Compound 13-3 (24 hours, 0.1 μM (FIG. 1B))",palmitoleic acid-induced increase of intracellular triglyceride content [2],"inhibitory effect on fat accumulation as compared to Compound 13-3 (48 hours, 0.1 μM (FIG. 1C))"
CCN(CC)CCNC(=O)c1c(C)[nH]c(/C=C2\C(=O)Nc3cccc(-c4cnc(OC)nc4)c32)c1C [Compound 13-3-5],markedly suppressed,comparable or greater,,
CCN(CC)CCNC(=O)CCc1c(C)[nH]c(/C=C2\C(=O)Nc3ccc(-c4csc(-c5ccccc5)n4)cc32)c1C [Compound 13-3-7],markedly suppressed,comparable or greater,,
[2H]C([2H])([2H])C([2H])([2H])N(C([2H])([2H])C([2H])([2H])[2H])C([2H])([2H])C([2H])([2H])NC(=O)c1c(C)[nH]c(/C=C2\C(=O)Nc3ccc(-c4csc(-c5ccccc5)n4)cc32)c1C [Compound 004],,,markedly suppressed,comparable or greater
[2H]c1c([2H])c([2H])c(-c2nc(-c3ccc4c(c3)/C(=C/c3[nH]c(C)c(C(=O)NCCN(C([2H])([2H])C([2H])([2H])[2H])C([2H])([2H])C([2H])([2H])[2H])c3C)C(=O)N4)cs2)c([2H])c1[2H] [Compound 133],,,markedly suppressed,comparable or greater
[2H]C([2H])([2H])C([2H])([2H])N(CCNC(=O)c1c(C)[nH]c(/C=C2\C(=O)Nc3ccc(-c4csc(-c5ccccc5)n4)cc32)c1C)C([2H])([2H])C([2H])([2H])[2H] [Compound 134],,,markedly suppressed,comparable or greater
CCN(CC)CCNC(=O)c1c(C)[nH]c(/C=C2\C(=O)Nc3ccc(-c4csc(N5CCCCC5)n4)cc32)c1C [Compound 13-3-2],markedly suppressed,comparable or greater,,
Cc1[nH]c(/C=C2\C(=O)Nc3ccc(-c4csc(-c5cccnc5)n4)cc32)c(C)c1C(=O)N1CCN(C)CC1 [Compound 18-2],markedly suppressed,comparable or greater,,
CCN(CC)CCNC(=O)c1c(C)[nH]c(/C=C2\C(=O)Nc3ccc(-c4csc(Nc5ccccc5)n4)cc32)c1C [Compound 13-3-1],markedly suppressed,comparable or greater,,
CCN(CC)CCNC(=O)c1c(C)[nH]c(/C=C2\C(=O)Nc3cnc(-c4csc(-c5ccccc5)n4)cc32)c1C [Compound 13-3-10],markedly suppressed,comparable or greater,,
CCN(CC)CCC(=O)N1CCN(c2ccc(/C=C3\C(=O)Nc4ccc(-c5csc(-c6ccccc6)n5)cc43)cc2)CC1 [Compound 13-3-6],markedly suppressed,comparable or greater,,
CCN(CC)CCNC(=O)c1c(C)[nH]c(/C=C2\C(=O)Nc3ccc(C4CCN(c5ccccc5)CC4)cc32)c1C [Compound 13-3-11],markedly suppressed,comparable or greater,,
CCN(CC)CCNC(=O)c1c(C)[nH]c(/C=C2\C(=O)Nc3ccc(C(=O)Nc4csc([N+](=O)[O-])n4)cc32)c1C [Compound 13-3-3],markedly suppressed,comparable or greater,,
[2H]C([2H])(NC(=O)c1c(C)[nH]c(/C=C2\C(=O)Nc3ccc(-c4csc(-c5ccccc5)n4)cc32)c1C)C([2H])([2H])N(CC)CC [Compound 001],,,markedly suppressed,comparable or greater
[2H]c1c([2H])c([2H])c(-c2nc(-c3ccc4c(c3)/C(=C/c3[nH]c(C)c(C(=O)NCCN(CC)CC)c3C)C(=O)N4)cs2)c([2H])c1[2H] [Compound 132],,,markedly suppressed,comparable or greater
[2H]c1c([2H])c([2H])c(-c2nc(-c3ccc4c(c3)/C(=C/c3[nH]c(C)c(C(=O)NC([2H])([2H])C([2H])([2H])N(C([2H])([2H])C([2H])([2H])[2H])C([2H])([2H])C([2H])([2H])[2H])c3C)C(=O)N4)cs2)c([2H])c1[2H] [Compound 006],,,markedly suppressed,comparable or greater
[2H]c1c([2H])c([2H])c(-c2nc(-c3ccc4c(c3)/C(=C/c3[nH]c(C)c(C(=O)NC([2H])([2H])C([2H])([2H])N(CC)CC)c3C)C(=O)N4)cs2)c([2H])c1[2H] [Compound 013],,,markedly suppressed,comparable or greater
